Experimental findings from patent US10835533B2, “1 -((3S,4R)-4-(3-fluorophenyl)-1-(2-methoxyethyl)pyrrolidin-3-yl)-3-(4-methyl-3-(2-methylpyrimidin-5-yl)-1-phenyl-1H-pyrazol-5-yl)urea as a TrkA kinase inhibitor” (Array BioPharma Inc., priority 2014, dated 2020) are described below.

Data set [1] in a line: IV clearance, 1 mg/kg IV, dog. The note with it: for clearance: male, Beagle, plasma, 1 mg/kg IV; for in vivo/in vitro correction factor: microsomal CLh divided by IV CL. The data set is classed as in vivo. Here is the method:
(§1) In Table 1, the predicted human IV clearance values were calculated from compound concentration-versus-time data in plasma collected from pre-clinical species (mouse, rat, dog and monkey) following 1 mg/kg intravenous (IV) doses. Concentrations of compound in plasma were measured by LC-MS (liquid chromatography-mass spectrometry). AUCinf values (Area under the plasma concentration-time curve for a dosing interval from time 0 extrapolated to infinity) for individual Cp/t curves (concentration of the drug in plasma at any time t) were determined using linear-trapezoidal integration and first order extrapolation from terminal points of the Cp/t curves, and clearance (CL) was calculated using Dose/AUCinf.
An IV dose formulation for delivery of a 1 mg/kg in 1 mL/kg dose volume was prepared as follow. The vehicle for the formulation was 20% Trappsol® (hydroxypropyl Beta cyclodextrin; CDT, Inc.) (aq) in water. A final volume of the vehicle was added to each of Compound 1, Compound 2, and Compound 3 (as dry compounds) and the mixture was stirred until a homogeneous solution was obtained. The pH of the final solution was 7. The solution was filtered using a 0.2 μM filter before delivering to the animal.
Male Beagle dogs received a single intravenous dose following an overnight fast. Blood/plasma was collected (1.5 mL/timepoint) in K2EDTA blood collection tubes at the following time points post-dose: 0, 1, 5, 15, and 30 minutes, and 1, 2, 4, 8, 12, 24, and 48 hours, and mixed thoroughly. Blood samples were collected from the jugular, cephalic or saphenous veins from conscious animals. Blood samples were kept on ice until processed for plasma. Blood samples were centrifuged at 3200 RPM for 10 minutes at approximately 5° C. Plasma samples were directly transferred to 96-well plate tubes (MatrixTech, 0.75 mL). Rubber injectable caps were placed on the 96-well plate tubes. Plasma samples were stored at −20±5° C. until analyzed.
A single 12-point calibration curve was prepared by first serially diluting (3-fold) a 40-μg/mL stock solution of Compound 1, Compound 2, and Compound 3 in DMSO to provide standard solutions. Plasma (20 μL) was then added to the extraction plate, and 2.5 μL of each standard solution was added to the naïve plasma. A stock solution of an internal standard (10.0 μL of 2.5 μg/mL in acetonitrile) subsequently was added to each standard and sample solution. Proteinaceous material was precipitated from 20 μL of plasma with the addition of 317.5 μL of acetonitrile for a total volume of 350 μL. Samples were vortex-mixed for 5 minutes and spun in an Allegra X-12R centrifuge (Beckman Coulter, Fullerton, Calif.) for 15 minutes at approximately 1,500×g at 4° C. A 100-μL aliquot of each supernatant was transferred via a 550 μL Personal Pipettor (Apricot Designs, Monrovia, Calif.) to 96-well plates and diluted 1:1 with HPLC grade water. The resulting plates were sealed with plate mats and the amount of Compound 1 n plasma was analyzed by LC-MS/MS.
The LC-MS/MS system was comprised of an HTC-PAL autosampler (Leap Technologies, Inc., Carrboro, N.C.), an HP1100 HPLC (Agilent Technologies Inc., Santa Clara, Calif.), and an API4000 triple quadrupole mass spectrometer (Applied Biosystems, Foster City, Calif.). Chromatographic retention of the analyte and internal standard was achieved using a Phenomenex® Synergi 4μ Hydro-RP 80A column (2.1×30 mm, 4 μm particle size; Phenomenex, Torrance, Calif.) in conjunction with gradient conditions using mobile phases A (10 mM ammonium acetate in aqueous 0.1% formic acid and 1% isopropyl alcohol) and B (10 mM ammonium acetate in 89.9% acetonitrile, 10% methanol, 0.1% formic acid). The total run time, including re-equilibration time, for a single injection was 3.5 minutes and the flow rate was 0.8 mL/minute. Solvent B was increased from 5 to 95% in 1.0 minute, held at 95% for 1.0 minute, and then decreased to 5% in 0.1 minute. […]

Data set [2] can be described thus: IV clearance, 1 mg/kg IV, monkey. The note with it: for in vivo/in vitro correction factor: microsomal CLh divided by IV CL; for clearance: plasma, 1 mg/kg IV. Type of data set: in vivo. Here is the method: as §1

As for `COCCN1C[C@@H](NC(=O)Nc2c(C)c(-c3cnc(C)nc3)nn2-c2ccccc2)[C@H](c2ccc(F)c(F)c2)C1` [Compound 2, 1-((3S,4R)-4-(3,4-difluorophenyl)-1-(2-methoxyethyl)pyrrolidin-3-yl)-3-(4-methyl-3-(2-methylpyrimidin-5-yl)-1-phenyl-1H-pyrazol-5-yl)urea], in data set [1], the clearance was 25 mL/min/kg and the “in vivo/in vitro correction factor” value came out at 1.04. Also, in data set [2], the “in vivo/in vitro correction factor” value worked out at 2.11 and the clearance was determined as 18 mL/min/kg.

Turning to `COCCN1C[C@@H](NC(=O)Nc2c(C)c(-c3cnn(C)c3)nn2-c2ccccc2)[C@H](c2ccc(F)cc2)C1` [Compound 3, 1-(1′,4-dimethyl-1-phenyl-1H,1′H-[3,4′-bipyrazol]-5-yl)-3-((3S,4R)-4-(4-fluorophenyl)-1-(2-methoxyethyl)pyrrolidin-3-yl)urea], in data set [1], the clearance stood at 18 mL/min/kg and the “in vivo/in vitro correction factor” value is listed as 1.28. Further, in data set [2], the “in vivo/in vitro correction factor” value is 0.84 and the clearance is 38 mL/min/kg.

On to `COCCN1C[C@@H](NC(=O)Nc2c(C)c(-c3cnc(C)nc3)nn2-c2ccccc2)[C@H](c2cccc(F)c2)C1` [Compound 1, 1-((3S,4R)-4-(3-fluorophenyl)-1-(2-methoxyethyl)pyrrolidin-3-yl)-3-(4-methyl-3-(2-methylpyrimidin-5-yl)-1-phenyl-1H-pyrazol-5-yl)urea], for which, in data set [1], the clearance was 7.6 mL/min/kg and the “in vivo/in vitro correction factor” value is on record as 3.16. In data set [2], the “in vivo/in vitro correction factor” value was determined as 1.65 and the clearance was determined as 20 mL/min/kg.

In general, clearance refers to a measure of how efficiently the substance is removed, as volume per time.
